One assay concerns the target T1, Human cathepsin L (Homo sapiens, UniProt P07711).
T1 construct: purchased Calbiochem Corp
As to the kind of experiment: Measurement of cathepsin L inhibitory activity (Z-Phe-Arg-MCA fluorescent substrate). It is filed as biochemical. The following applies: selectivity ratio L/K. As to the method:
(§1) Human cathepsin L (Calbiochem Corp.) was used for measurement. Activity was measured based on decomposition of the fluorescent substrate Z-Phe-Arg-MCA (Peptide Institute, Inc.) following the method of Barrett et al.^3). Namely, the decomposition of […] Z-Phe-Arg-MCA by cathepsin L was measured in 100 mM sodium acetate, 5 mM EDTA, 4 mM urea, 8 mM cysteine and 0.005% Brij35 at pH 5.5. The reaction was carried out for 30 minutes at 30° C., and stopped by the addition of 2×10^−5 M Calpeptin. After stopping the reaction, fluorescent intensity was measured at an excitation wavelength of 355 nm and measurement wavelength of 460 nm. Inhibition of cathepsin L by the compounds was examined using the reaction system described above.

The target of the next assay is T2, Human cathepsin B (Homo sapiens, UniProt P07858).
T2 construct: purchased Calbiochem Corp
As to the kind of experiment: Measurement of cathepsin B inhibitory activity (Z-Arg-Arg-MCA fluorescent substrate). The assay is classed as biochemical. Conditions: selectivity ratio B/K. As for the experimental part:
as §1, with “B” for “L”, “Z-Arg-Arg-MCA” for “Z-Phe-Arg-MCA”, “sodium/potassium phosphate, 1” for “sodium acetate, 5”, “EDTA,” for “EDTA, 4 mM urea,”, “6.0.” for “5.5.”

*1 amine or outer side, *2 acyl side, *3 side chain or, on linkers, in order; H or OH if unused. Where a SMILES comes first, the peptide text is derived from it. [ ]: non-standard residue; d: D form. The star is where a group is joined. Ac6c = NC1(C(=O)O)CCCCC1; Morpholide = C1CN(*)CCO1; Nle = CCCC[C@H](N)C(=O)O; Cbz = O=C(OCc1ccccc1)*; CO = O=C([*:1])[*:2]

Here are results for eight molecules from patent US8957205B2, “Cycloalkane carboxamide derivatives and production process of same” (Seikagaku Corporation, priority 2006, dated 2015).

T1 sequence (P07711 114-333): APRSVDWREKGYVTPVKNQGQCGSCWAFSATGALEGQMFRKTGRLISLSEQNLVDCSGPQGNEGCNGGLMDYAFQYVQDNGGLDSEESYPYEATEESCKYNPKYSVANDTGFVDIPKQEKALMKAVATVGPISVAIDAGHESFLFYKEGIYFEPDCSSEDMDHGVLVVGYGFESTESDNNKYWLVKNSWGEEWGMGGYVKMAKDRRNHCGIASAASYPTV

For `CCCC[C@@H](C=O)NC(=O)C1(NC(=O)OCc2ccccc2)CCCCC1` [Example 8, N-[[1-[[(Phenylmethoxy)carbonyl]amino]cyclohexyl]carbonyl]-L-norleucinal] (Cbz-[Ac6c]-[Nle]-aldehyde), the “L/K (ratio of cathepsin L IC50 to cathepsin K IC50)” value at Human cathepsin L is 50. Besides, the “B/K (ratio of cathepsin B IC50 to cathepsin K IC50)” value on Human cathepsin B was found to be 35.

For `CC(C)C[C@H](NC(=O)c1ccco1)C(=O)N[C@H](C=O)C(C)C` [Reference Example 187, N—[N-(2-Furanylcarbonyl)-L-leucyl]-L-valinal], the “L/K (ratio of cathepsin L IC50 to cathepsin K IC50)” value on Human cathepsin L is listed as 35. Besides, on Human cathepsin B, the “B/K (ratio of cathepsin B IC50 to cathepsin K IC50)” value is given as 30.

Turning to `CCCC[C@@H](C=O)NC(=O)[C@H](CC(C)C)NC(=O)N1CCOCC1` [Reference Example 186, N—[N-(4-Morpholinylcarbonyl)-L-leucyl]-L-norleucinal], on Human cathepsin L, the “L/K (ratio of cathepsin L IC50 to cathepsin K IC50)” value is given as 7.3. Further, the “B/K (ratio of cathepsin B IC50 to cathepsin K IC50)” value at Human cathepsin B is given as 4.3.

As for `CCCC[C@@H](C=O)NC(=O)[C@H](CC(C)C)NC(=O)OCc1ccccc1` [Reference Example 185, N—[N-[(Phenylmethoxy)carbonyl]-L-leucyl]-L-norleucinal], at Human cathepsin L, the “L/K (ratio of cathepsin L IC50 to cathepsin K IC50)” value worked out at 15. The “B/K (ratio of cathepsin B IC50 to cathepsin K IC50)” value at Human cathepsin B is listed as 11.

On to `CC(C)[C@@H](C=O)NC(=O)C1(NC(=O)OCc2ccccc2)CCCCC1` [Example 7, N-[[1-[[(Phenylmethoxy)carbonyl]amino]cyclohexyl]carbonyl]-L-valinal] (Cbz-[Ac6c]-Val-aldehyde), for which the “L/K (ratio of cathepsin L IC50 to cathepsin K IC50)” value on Human cathepsin L is on record as 400. Also, the “B/K (ratio of cathepsin B IC50 to cathepsin K IC50)” value on Human cathepsin B was 230.

For the molecule `CC(C)C[C@H](NC(=O)OCc1ccccc1)C(=O)N[C@H](C=O)C(C)C` [Reference Example 184, N—[N-[(Phenylmethoxy)carbonyl]-L-leucyl]-L-valinal] (Cbz-Leu-Val-aldehyde), the “L/K (ratio of cathepsin L IC50 to cathepsin K IC50)” value at Human cathepsin L stood at 74. In addition, on Human cathepsin B, the “B/K (ratio of cathepsin B IC50 to cathepsin K IC50)” value came out at 58.

Turning to `CC(C)[C@@H](C=O)NC(=O)C1(NC(=O)c2ccco2)CCCCC1` [Example 9, N-[[1-[(2-Furanylcarbonyl)amino]cyclohexyl]carbonyl]-L-valinal], at Human cathepsin L, the “L/K (ratio of cathepsin L IC50 to cathepsin K IC50)” value is 370. In addition, the “B/K (ratio of cathepsin B IC50 to cathepsin K IC50)” value at Human cathepsin B is recorded as 87.

Consider `CCCC[C@@H](C=O)NC(=O)C1(NC(=O)N2CCOCC2)CCCCC1` [Example 10, N-[[1-[(4-Morpholinylcarbonyl)amino]cyclohexyl]carbonyl]-L-norleucinal] ({Morpholide-CO}-[Ac6c]-[Nle]-aldehyde), for which the “L/K (ratio of cathepsin L IC50 to cathepsin K IC50)” value at Human cathepsin L worked out at 21. The “B/K (ratio of cathepsin B IC50 to cathepsin K IC50)” value at Human cathepsin B was 12.
